Assays:
Assay in all cases: microbe, parasite or virus in culture
Type in all cases: cell-based, SARS-COV-2
SARS-2 WA1/2020 = conditions: Severe acute respiratory syndrome coronavirus 2, Vero C1008; 72 hours
[1] = system: hCoV-19/Japan/TY7-503/2021 (P.1 line); conditions: Severe acute respiratory syndrome coronavirus 2, Vero 76, read-out: EC90 value (90% effective concentration)
[2] = system: hCoV-19/Japan/TY8-612/2021 (B.1.351 line); conditions: Severe acute respiratory syndrome coronavirus 2, VeroE6/TMPRSS2; 40 hours
[3] = system: hCoV-19/Japan/TY7-501/2021 (P.1 line); conditions: Severe acute respiratory syndrome coronavirus 2, VeroE6/TMPRSS2; 40 hours
[4] = system: hCoV-19/Japan/TY2-312-P1/2020 (B.1.1 line)
[5] = system: hCoV-19/Japan/TY11-927-P1/2021 (B.1.617 line); conditions: Severe acute respiratory syndrome coronavirus 2, VeroE6/TMPRSS2; 40 hours
[6] = system: hCoV-19/England/204820464/2020 (B.1.1.7 line); conditions: Severe acute respiratory syndrome coronavirus 2, Vero 76, read-out: EC90 value (90% effective concentration)
USA_WA1/2020 (A line) = conditions: Severe acute respiratory syndrome coronavirus 2, Vero 76, read-out: EC90 value (90% effective concentration)
SARS-2-9017 (delta) = conditions: Severe acute respiratory syndrome coronavirus 2, Vero C1008; 72 hours
[7] = system: hCoV-19/Japan/QK002/2020 (B.1.1.7 line); conditions: Severe acute respiratory syndrome coronavirus 2, VeroE6/TMPRSS2; 40 hours
[8] = system: hCoV-19/Japan/TY11-330-P1/2021 (B.1.617.1 line); conditions: Severe acute respiratory syndrome coronavirus 2, VeroE6/TMPRSS2; 40 hours
SARS-2 Omicron = conditions: Severe acute respiratory syndrome coronavirus 2, Vero C1008; 72 hours

NC(=O)c1nc(F)cnc1O [Compound A, 6-fluoro-3-hydroxy-2-pyrazinecarboxamide]
EC90 (SARS-2 WA1/2020): 125 to 250 µM | EC90 [1]: 190 µM | EC90 [2]: 223 µM | EC90 [3]: 306 µM | EC90 ([4]; 40 hours): 466 µM | EC90 ([4]; Severe acute respiratory syndrome coronavirus 2, VeroE6/TMPRSS2, 40 h): 302 µM | EC90 [5]: 294 µM | EC90 [6]: 83 µM | EC90 (USA_WA1/2020 (A line)): 68 µM | EC90 (SARS-2-9017 (delta)): 125 to 250 µM | EC90 [7]: 359 µM | EC90 [8]: 491 µM | EC90 (SARS-2 Omicron): 62.5 to 125 µM

From US20240245679A1, “AGENT FOR TREATING INFECTIOUS DISEASES AGAINST MUTANT VIRUSES OF NOVEL CORONAVIRUS” (FUJIFILM TOYAMA CHEMICAL CO., LTD., priority 2021, published 2024)
